Values after ≈ are worked out from the molar mass of the structure shown.
Tests used:
[1] = Solubility of Crystalline Form A in test solvents (excess solid equilibrated, filtrate by HPLC); type: physicochemical; conditions: for pH of final solution: 25°C solubility test; for solubility at 8 days: 25°C, equilibrated 8 days; for solubility at 4 days: 37°C, equilibrated 4 days
Procedure: (§1) The solubility and dissolution rate of the Crystalline form A of the free base of compound I prepared as described in Example 1 were tested in various solvents.
(§2) For solubility measurements, excess Form A of the free base of compound I was added to the test solvents and equilibrated for 8 days at 25° C.±0.5° C. and 4 days at 37±0.5° C. Slurries were filtered and the filtrate saved for HPLC solubility determinations. Dissolution rate measurements were carried out in 0.5 cm^2 Vankel punch and die assemblies and a pellet pressure of 2000 pounds. The dissolution was measured using fiber optics dissolution system (C technologies Inc.) and a Cary UV/VIS spectrophotometer, with a stirring rate of 200 rpm. The solution medium was held at 37±0.5° C. and the concentration measurements were made at 260 nm.

[2] = Intrinsic dissolution rate (Vankel punch and die, fiber optics UV at 260 nm, 200 rpm, 37°C); type: physicochemical; conditions: for Intrinsic dissolution rate: 37°C, 200 rpm
Procedure: as §1, §2

For CCc1cc(/C(C)=N/OCc2ccc(C3CCCCC3)c(C(F)(F)F)c2)ccc1CN1CC(C(=O)O)C1 [Compound I, 1-(4-{1-[(E)-4-cyclohexyl-3-trifluoromethyl-benzyloxyimino]-ethyl}-2-ethyl-benzyl)-azetidine-3-carboxylic acid], which “pH of final solution” value ([1]; 0.01N HCL) is on record?
The value was 2.24.

And the “pH of final solution” value ([1]; 0.01N HCl + SDS (0.1%))?
The value was 2.33.

What about the “pH of final solution” value ([1]; 0.1N HCl + SDS (0.1%)) of the same molecule?
Its value is 1.48.

What about the “pH of final solution” value ([1]; 0.1N HCl) of the same molecule?
The value was 1.49.

What about the “pH of final solution” value ([1]; Phosphate buffer, pH 6.8) of the same molecule?
The value was 7.02.

And the “pH of final solution” value ([1]; Water + SDS (0.1%))?
The value was 7.02.

What about the “pH of final solution” value ([1]; Water) of the same molecule?
The value was 6.28.

What about the solubility at 8 days ([1]; aqueous buffer, thermodynamic from solid, Phosphate buffer, pH 6.8) of the same molecule?
The solubility at 8 days was 0.47 µg/mL (≈ 0.91 µM).

And the solubility at 8 days ([1]; aqueous with cosolvent or surfactant or cyclodextrin, thermodynamic from solid, Acetonitrile/water (1:1 v/v))?
Its solubility at 8 days is greater than 40000 µg/mL.

What about the solubility at 8 days ([1]; aqueous with cosolvent or surfactant or cyclodextrin, thermodynamic from solid, Ethanol/water (1:1 v/v)) of the same molecule?
Its solubility at 8 days is 13900 µg/mL (≈ 26900 µM).

And the solubility at 8 days ([1]; organic solvent or mixture, thermodynamic from solid, Ethanol)?
The solubility at 8 days was 47600 µg/mL (≈ 92100 µM).

And the solubility at 8 days ([1]; organic solvent or mixture, thermodynamic from solid, acetonitrile)?
The solubility at 8 days was 610 µg/mL (≈ 1180 µM).

What about the solubility at 8 days ([1]; pH 1.48, aqueous with cosolvent or surfactant or cyclodextrin, thermodynamic from solid, 0.1N HCl + SDS (0.1%)) of the same molecule?
The solubility at 8 days was 22 µg/mL.

What about the solubility at 8 days ([1]; pH 1.49, simulated gastric fluid, thermodynamic from solid, 0.1N HCl) of the same molecule?
The solubility at 8 days was 1.5 µg/mL (≈ 2.9 µM).

What about the solubility at 8 days ([1]; pH 2.24, simulated gastric fluid, thermodynamic from solid, 0.01N HCL) of the same molecule?
Its solubility at 8 days is 0.6 µg/mL (≈ 1.16 µM).

What about the solubility at 8 days ([1]; pH 2.33, aqueous with cosolvent or surfactant or cyclodextrin, thermodynamic from solid, 0.01N HCl + SDS (0.1%)) of the same molecule?
The solubility at 8 days was 994 µg/mL.

What about the solubility at 8 days ([1]; pH 6.28, thermodynamic from solid, Water) of the same molecule?
Its solubility at 8 days is 33 µg/mL (≈ 63.9 µM).

And the solubility at 8 days ([1]; pH 7.02, aqueous with cosolvent or surfactant or cyclodextrin, thermodynamic from solid, Water + SDS (0.1%))?
The solubility at 8 days was 1190 µg/mL.

And the solubility at 4 days ([1]; simulated gastric fluid, thermodynamic from solid, 0.01N HCl)?
Its solubility at 4 days is less than 0.5 µg/mL.

What about the solubility at 4 days ([1]; simulated gastric fluid, thermodynamic from solid, 0.1N HCl) of the same molecule?
The solubility at 4 days was 1.9 µg/mL (≈ 3.68 µM).

And the “Solubility (overall assessment)” value ([1]; summary of Tables 2-3)?
The value was “good solubility”.

And the solubility at 4 days ([1]; thermodynamic from solid, water)?
The solubility at 4 days was 106 µg/mL (≈ 205 µM).

And the Intrinsic dissolution rate ([2]; 0.01N HCl + SDS (0.1%))?
The Intrinsic dissolution rate was 0.0245 mg min^−1 cm^−2.

What about the Intrinsic dissolution rate ([2]; 0.1N HCl + SDS (0.1%)) of the same molecule?
The Intrinsic dissolution rate was 0.0368 mg min^−1 cm^−2.

What about the Intrinsic dissolution rate ([2]; Water + SDS (0.1%)) of the same molecule?
Its Intrinsic dissolution rate is 0.0098 mg min^−1 cm^−2.

What about the “Dissolution (overall assessment)” value ([2]; summary of Table 4) of the same molecule?
Its value is “relatively quick dissolution”.

Source: patent publication US8173634B2, “Polymorphic form of 1-(4-{1-[(E)-4-cyclohexyl-3-trifluoromethyl-benzyloxyimino]-ethyl}-2-ethyl-benzyl)-azetidine-3-carboxylic” (Novartis AG, priority 2008, dated 2012)
